The values that follow come from PubChem BioAssay AID434987 (Southern Research Specialized Biocontainment Screening …, 2010).

In this test the test system is M. tuberculosis H37Rv growth inhibition with meropenem. Nature of the test: dose response, H37Rv, with and without meropenem (AID 434987).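 Note: growth over 7 days at 37 °C before Alamar Blue read on day 9.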
[1] abbreviates: M. tuberculosis H37Rv growth inhibition, measured here: IC50 without meropenem.
Setting [2] is: M. tuberculosis H37Rv growth inhibition, measured here: IC90 without meropenem.
[3] abbreviates: measured here: IC90 with meropenem.

Structures are written as SMILES. The source made the active and inactive calls. The rule behind the calls is not given here.

On to `Cc1ccsc1C(=O)NNC(=O)c1csc(N2CCOCC2)n1`, for which the IC50 (as a rule, the point on the concentration scale where inhibition reaches its midpoint) was 62.7 µM (inactive). The same compound yielded an IC50 under setting [1] of over 100 µM. In addition, the IC90 – broadly, the concentration needed for an effect of 90% – under setting [2] was over 100 µM. Moreover, under setting [3], the IC90 is over 100 µM.
As to `COCCNC(=O)c1ccc(NC(=O)C2(c3ccccc3)CCCC2)cc1`, the IC50 is 8.1 µM. Further, the half-maximal inhibitory concentration (IC50) under setting [1] amounted to 33.4 µM. Under setting [2], this compound gave a concentration for an effect of 90% (IC90) of over 100 µM. The IC90 under setting [3] is over 100 µM.
With `CCN(CC)c1ccc(NC(=O)c2cc(Cl)ccc2OC)cc1`, the 50% inhibitory concentration (IC50) is 24.2 µM. This compound also had an IC50 under setting [1] of over 100 µM. Also, the IC90 under setting [2] was over 100 µM. This compound also registered an IC90 under setting [3] of over 100 µM.
For the compound `Cc1ccc(Cn2c(C(C)Nc3nc(-c4ccc(Cl)cc4)cs3)nc3cc(C(=O)NCCCO)ccc32)cc1` (stereo not drawn), the IC50 is 73.5 µM (inactive). Also, the IC50 under setting [1] stood at 67.3 µM. In addition, the IC90 under setting [2] came out at 86.4 µM. The IC90 under setting [3] is over 100 µM.
In the same order, the values of `COc1cc(C(=O)NC2CCCCC2)ccc1OCc1ccc(Cl)cc1Cl` are > 100 µM (inactive), over 100 µM, over 100 µM and over 100 µM.
As to `Cc1cc(Br)ccc1NC(=O)CN1C(=O)C2CC=CCC2C1=O` (stereo not drawn), the IC50 is 1 µM. This compound also came in with a concentration for half-maximal inhibition (IC50) under setting [1] of 8.65 µM. This compound displayed an IC90 under setting [2] of 26.7 µM. Also, the IC90 under setting [3] was 38.7 µM.
For the compound `O=c1c(O)c(-c2ccc3c(c2)OCO3)oc2ccccc12`, the IC50 was 2.12 µM. For the same compound, the IC50 under setting [1] was over 100 µM. The compound further displayed an IC90 under setting [2] of over 100 µM. The IC90 under setting [3] is over 100 µM.
As to `CC1CCCN(C(=O)C2CCN(c3ncnc4c3nc3n4CCCCC3)CC2)C1` (stereo not drawn), the IC50 was 46.7 µM (inactive). For the same compound, under setting [1], the IC50 is 89.8 µM. Moreover, the IC90 under setting [2] is over 100 µM. In addition, under setting [3], the IC90 came to 49.7 µM.
As for `COc1ccc(NC(=O)CSc2nncn2C)c([N+](=O)[O-])c1`, the IC50 was 44.5 µM (inactive). Under setting [1], the half-maximal inhibitory concentration (IC50) was found to be 90.1 µM. The 90% effect concentration (IC90) under setting [2] was over 100 µM. The IC90 under setting [3] is over 100 µM.
On to `CCNC(=O)CCn1nc(-c2ccc(Cl)cc2)c2ccccc2c1=O`, for which the IC50 was 23.6 µM. In addition, under setting [1], the IC50 was over 100 µM. Under setting [2], the IC90 is over 100 µM. Further, the IC90 under setting [3] was over 100 µM.
In the case of `O=C(Nc1cccc(Cl)c1N1CCOCC1)c1ccc([N+](=O)[O-])o1`, the concentration for half-maximal inhibition (IC50) is 0.909 µM. This compound displayed an IC50 under setting [1] of 11 µM. Further, the IC90 under setting [2] is over 100 µM. Under setting [3], this compound returned an IC90 of 38.2 µM.
On the same counts, the results for `COc1ccc(CC2=C(O)c3ccccc3C(=O)C2=O)cc1` are 47.2 µM (inactive), over 100 µM, over 100 µM and over 100 µM.
In the same order, the values of `Cc1cc(C)nc(SCC(=O)Nc2ccccc2[N+](=O)[O-])n1` are 14.4 µM (inactive), 27.9 µM, over 100 µM and over 100 µM.
On the same counts, the results for `O=C1OC(/C=C/c2ccc(Cl)cc2Cl)=NC/1=C\c1cccs1` are 4.04 µM, 14.7 µM, 60.1 µM and 33.4 µM.
As to `Cc1cc(C)cc(NC(=O)c2cc(Cl)sc2Cl)c1`, the IC50 was 4.84 µM. Also, under setting [1], the IC50 is over 100 µM. The compound further returned an IC90 under setting [2] of over 100 µM. For the same compound, under setting [3], the IC90 is 7.73 µM.
Turning to `Cc1ccc(-n2nnnc2Sc2nc([N+](=O)[O-])nn2C)cc1`, the IC50 was 10.2 µM. Under setting [1], this compound came in with an IC50 of 51.4 µM. Also, the IC90 under setting [2] is 93.5 µM. This compound also returned an IC90 under setting [3] of over 100 µM.
In the same order, the values of `CCOC(=O)c1nn(-c2ccc(F)cc2)c2nc(Nc3ccccc3)cc(=O)n12` are > 100 µM (inactive), over 100 µM, over 100 µM and over 100 µM.
On the same counts, the results for `CCOc1cc(/C=N\NC(=O)c2ccc(NC(=O)C(C)(C)C)cc2)ccc1OC(=O)c1ccc(C)cc1` are > 100 µM (inactive), over 100 µM, over 100 µM and over 100 µM.
On the same counts, the results for `CN(C)S(=O)(=O)c1ccc(NC(=O)c2cc3ccccc3o2)cc1` are > 100 µM (inactive), over 100 µM, over 100 µM and over 100 µM.
On to `Cc1cccc(NC(=O)c2nc[nH]c2C(=O)N[C@@H](CC(C)C)C(=O)OCc2ccccc2)c1`, for which the IC50 was 9.43 µM. Under setting [1], this compound showed a concentration for half-maximal inhibition (IC50) of 26.1 µM. The IC90 under setting [2] worked out at 51.8 µM. The IC90 under setting [3] was over 100 µM.
Take `COc1ccc(Cn2c(=O)[nH]c3cc(C(=O)N4CCN(c5ccccc5F)CC4)ccc3c2=O)cc1`: the IC50 is > 100 µM (inactive). This compound displayed an IC50 under setting [1] of over 100 µM. The compound further displayed an IC90 under setting [2] of over 100 µM. Also, the IC90 under setting [3] was over 100 µM.
In the case of `CSCC(=O)Nc1ccc(F)c(Cl)c1`, the IC50 was 10.1 µM (inactive). Also, the IC50 under setting [1] stood at 21.9 µM. Under setting [2], this compound showed a 90% effect concentration (IC90) of over 100 µM. Under setting [3], this compound came in with an IC90 of over 100 µM.
